Experimental findings from ChEMBL document CHEMBL5465560, “Selectivity Literature for EUbOPEN Chemogenomic Library” (2024) are described below.

The target of assay [1] is T1, Mitogen-activated protein kinase kinase kinase kinase 2 (Homo sapiens) (UniProt Q12851).
T1 sequence (whole entry): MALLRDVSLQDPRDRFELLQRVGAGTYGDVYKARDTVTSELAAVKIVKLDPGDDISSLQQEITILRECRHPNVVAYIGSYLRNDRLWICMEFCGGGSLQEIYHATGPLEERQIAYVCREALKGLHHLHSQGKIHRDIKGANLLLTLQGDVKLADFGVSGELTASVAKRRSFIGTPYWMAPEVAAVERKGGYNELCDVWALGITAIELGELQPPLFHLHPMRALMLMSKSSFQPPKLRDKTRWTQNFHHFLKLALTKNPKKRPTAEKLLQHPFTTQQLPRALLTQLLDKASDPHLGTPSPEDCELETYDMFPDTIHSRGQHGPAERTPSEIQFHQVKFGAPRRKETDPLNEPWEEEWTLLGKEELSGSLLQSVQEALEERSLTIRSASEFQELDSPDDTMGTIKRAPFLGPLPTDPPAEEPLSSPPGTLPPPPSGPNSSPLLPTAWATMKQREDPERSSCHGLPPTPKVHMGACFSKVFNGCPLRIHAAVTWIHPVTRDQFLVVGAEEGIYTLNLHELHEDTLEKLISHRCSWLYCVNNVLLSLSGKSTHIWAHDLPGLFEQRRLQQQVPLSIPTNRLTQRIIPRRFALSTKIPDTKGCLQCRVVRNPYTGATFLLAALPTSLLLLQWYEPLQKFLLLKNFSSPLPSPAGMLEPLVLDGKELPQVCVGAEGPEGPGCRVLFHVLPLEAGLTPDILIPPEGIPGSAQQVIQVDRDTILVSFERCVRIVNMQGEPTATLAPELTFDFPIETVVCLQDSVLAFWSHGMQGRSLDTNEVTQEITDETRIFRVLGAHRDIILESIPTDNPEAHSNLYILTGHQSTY
The assay can be described thus: Selectivity interaction (Kinase panel (Z-LYTE Assay)) EUB0001632a MAP4K2. Particulars: at 10 µM.

Assay [2] addresses Calcium/calmodulin-dependent protein kinase type 1 (Homo sapiens) (UniProt Q14012). The assay can be described thus: Selectivity interaction (Adapta Assay) EUB0001632a CAMK1. The following applies: at 10 µM.
For assay [3], the target named is T2, TGF-beta receptor type-1 (Homo sapiens) (UniProt P36897).
T2 sequence (whole entry): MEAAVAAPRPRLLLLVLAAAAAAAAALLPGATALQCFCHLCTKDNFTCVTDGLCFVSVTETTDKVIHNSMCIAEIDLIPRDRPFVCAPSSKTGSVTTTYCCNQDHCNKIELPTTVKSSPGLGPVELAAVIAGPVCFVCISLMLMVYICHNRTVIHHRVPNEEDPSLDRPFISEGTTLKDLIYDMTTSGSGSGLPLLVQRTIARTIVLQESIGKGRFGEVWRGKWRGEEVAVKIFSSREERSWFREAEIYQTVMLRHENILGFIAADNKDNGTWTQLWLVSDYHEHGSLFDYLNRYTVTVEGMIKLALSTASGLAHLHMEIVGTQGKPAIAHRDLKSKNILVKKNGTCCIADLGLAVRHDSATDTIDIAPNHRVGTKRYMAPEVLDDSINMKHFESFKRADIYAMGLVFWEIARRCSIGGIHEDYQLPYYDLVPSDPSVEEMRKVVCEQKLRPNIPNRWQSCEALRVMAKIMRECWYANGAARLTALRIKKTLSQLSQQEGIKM
The assay can be described thus: Selectivity interaction (KinomeScan (DiscoverX)) EUB0001619a TGFBR1. The following applies: at 1 µM.

In assay [4] the target is Gamma-aminobutyric acid type B receptor subunit 1 (Homo sapiens) (UniProt Q9UBS5). Put plainly: Selectivity interaction (Eurofins CEREP Diversity Profile (receptors and ion channels)) EUB0000279b GABBR1. The following applies: at 10 µM.
Gamma-aminobutyric acid type B receptor subunit 1 (Homo sapiens), sequence (Q9UBS5 whole entry): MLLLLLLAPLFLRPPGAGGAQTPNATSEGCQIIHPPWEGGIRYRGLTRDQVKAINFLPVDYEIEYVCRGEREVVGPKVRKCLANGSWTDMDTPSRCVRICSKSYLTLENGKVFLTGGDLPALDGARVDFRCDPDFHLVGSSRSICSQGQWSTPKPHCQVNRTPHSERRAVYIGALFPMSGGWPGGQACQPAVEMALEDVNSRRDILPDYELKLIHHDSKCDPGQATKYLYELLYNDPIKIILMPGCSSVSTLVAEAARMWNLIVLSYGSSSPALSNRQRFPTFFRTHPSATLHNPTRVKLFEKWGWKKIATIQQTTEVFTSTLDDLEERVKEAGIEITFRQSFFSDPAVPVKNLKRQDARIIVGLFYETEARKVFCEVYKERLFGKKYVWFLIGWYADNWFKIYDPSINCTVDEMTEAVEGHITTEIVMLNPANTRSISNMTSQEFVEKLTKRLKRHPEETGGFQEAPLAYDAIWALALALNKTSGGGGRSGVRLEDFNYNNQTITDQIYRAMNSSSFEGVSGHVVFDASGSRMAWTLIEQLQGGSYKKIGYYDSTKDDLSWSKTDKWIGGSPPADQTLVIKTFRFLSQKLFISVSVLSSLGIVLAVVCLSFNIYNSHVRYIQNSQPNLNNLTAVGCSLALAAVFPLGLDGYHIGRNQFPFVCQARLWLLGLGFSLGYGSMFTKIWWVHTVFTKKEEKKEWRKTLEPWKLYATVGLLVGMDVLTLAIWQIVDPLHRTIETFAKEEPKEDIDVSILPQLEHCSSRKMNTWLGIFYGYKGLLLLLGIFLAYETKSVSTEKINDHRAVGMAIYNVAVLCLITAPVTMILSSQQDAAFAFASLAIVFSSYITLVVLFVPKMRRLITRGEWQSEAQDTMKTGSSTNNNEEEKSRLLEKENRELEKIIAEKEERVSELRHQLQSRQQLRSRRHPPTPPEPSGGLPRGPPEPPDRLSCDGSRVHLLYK
Assay [5] addresses Receptor tyrosine-protein kinase erbB-2 (Homo sapiens, UniProt P04626). Particulars: at 10 µM.
Assay [6] concerns the target T3, Calcium/calmodulin-dependent protein kinase type IV (Homo sapiens) (UniProt Q16566).
T3 sequence (whole entry): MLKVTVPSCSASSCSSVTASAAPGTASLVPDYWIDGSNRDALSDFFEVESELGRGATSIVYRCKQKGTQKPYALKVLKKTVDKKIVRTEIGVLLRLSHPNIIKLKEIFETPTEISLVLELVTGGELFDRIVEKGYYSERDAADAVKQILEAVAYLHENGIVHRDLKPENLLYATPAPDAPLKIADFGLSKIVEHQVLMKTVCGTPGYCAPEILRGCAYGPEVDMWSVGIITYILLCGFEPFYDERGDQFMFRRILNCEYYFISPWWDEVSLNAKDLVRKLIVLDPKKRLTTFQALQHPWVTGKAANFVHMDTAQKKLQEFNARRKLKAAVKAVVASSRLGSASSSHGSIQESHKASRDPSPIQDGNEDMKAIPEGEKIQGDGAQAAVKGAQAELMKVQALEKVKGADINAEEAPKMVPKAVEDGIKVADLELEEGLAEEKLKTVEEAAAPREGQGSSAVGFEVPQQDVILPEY
Put plainly: Selectivity interaction (Kinase screening (Upstate/Millipore)) EUB0000604a CAMK4.

Assay [7] concerns the target eIF-2-alpha kinase GCN2 (Homo sapiens) (UniProt Q9P2K8). The assay can be described thus: Selectivity interaction (ActivX KiNativ screen (kinase selectivity in THP-1 cell lysates)) EUB0000639a EIF2AK4. Format: subcellular. The following applies: lysate, at 0.2 µM.
Assay [8] addresses Ribosomal protein S6 kinase alpha-1 (Homo sapiens, UniProt Q15418). Put plainly: Selectivity interaction (ActivX KiNativ screen (kinase selectivity in THP-1 cell lysates)) EUB0000639a RPS6KA1. Format: subcellular. The following applies: lysate, at 0.04 µM.
For assay [9], the target named is Serine/threonine-protein kinase N1 (Homo sapiens, UniProt Q16512). Put plainly: Selectivity interaction (Kinase panel (33PanQinase(R) Activity Assay)) EUB0000877a PKN1.
Serine/threonine-protein kinase N1, sequence (Q16512 whole entry, canonical isoform): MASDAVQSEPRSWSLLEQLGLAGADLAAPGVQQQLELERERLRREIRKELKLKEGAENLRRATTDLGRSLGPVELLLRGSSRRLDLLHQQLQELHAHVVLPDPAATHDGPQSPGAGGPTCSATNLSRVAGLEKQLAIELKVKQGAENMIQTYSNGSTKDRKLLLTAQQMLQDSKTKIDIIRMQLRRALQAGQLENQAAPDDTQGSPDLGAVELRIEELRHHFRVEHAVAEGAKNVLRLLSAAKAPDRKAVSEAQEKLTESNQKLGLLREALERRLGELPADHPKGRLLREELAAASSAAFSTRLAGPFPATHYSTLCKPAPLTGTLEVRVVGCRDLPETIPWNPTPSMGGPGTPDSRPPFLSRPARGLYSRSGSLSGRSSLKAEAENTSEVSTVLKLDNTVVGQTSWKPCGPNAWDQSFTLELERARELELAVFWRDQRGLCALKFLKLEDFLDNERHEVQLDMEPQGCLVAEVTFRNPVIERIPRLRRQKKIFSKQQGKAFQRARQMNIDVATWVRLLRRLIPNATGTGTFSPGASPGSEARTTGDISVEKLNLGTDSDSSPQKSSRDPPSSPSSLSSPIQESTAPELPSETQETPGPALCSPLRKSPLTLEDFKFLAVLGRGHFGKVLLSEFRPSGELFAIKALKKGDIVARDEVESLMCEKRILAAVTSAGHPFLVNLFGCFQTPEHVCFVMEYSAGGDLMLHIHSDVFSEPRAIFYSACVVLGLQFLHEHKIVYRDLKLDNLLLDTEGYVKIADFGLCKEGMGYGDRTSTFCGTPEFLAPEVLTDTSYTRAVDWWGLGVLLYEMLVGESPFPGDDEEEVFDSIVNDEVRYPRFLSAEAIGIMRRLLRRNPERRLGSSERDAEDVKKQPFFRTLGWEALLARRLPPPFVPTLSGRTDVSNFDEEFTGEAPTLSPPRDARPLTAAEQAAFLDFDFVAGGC
Assay [10] deals with T4, Phosphorylase b kinase gamma catalytic chain, liver/testis isoform (Homo sapiens) (UniProt P15735).
T4 sequence (whole entry): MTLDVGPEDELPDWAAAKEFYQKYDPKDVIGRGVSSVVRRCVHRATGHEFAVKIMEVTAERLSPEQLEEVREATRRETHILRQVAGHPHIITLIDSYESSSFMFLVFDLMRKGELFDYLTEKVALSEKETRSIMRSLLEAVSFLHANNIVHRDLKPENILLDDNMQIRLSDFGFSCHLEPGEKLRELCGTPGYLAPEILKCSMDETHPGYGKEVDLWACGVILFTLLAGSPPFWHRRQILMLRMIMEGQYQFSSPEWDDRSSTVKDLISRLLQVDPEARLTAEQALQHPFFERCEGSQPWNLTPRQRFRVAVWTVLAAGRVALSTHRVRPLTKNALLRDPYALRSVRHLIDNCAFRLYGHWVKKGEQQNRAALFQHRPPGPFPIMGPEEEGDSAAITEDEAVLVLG
The assay can be described thus: Selectivity interaction (KinomeScan (DiscoverX)) EUB0001079a PHKG2. The following applies: at 1 µM.

A word on the IC50: it is the concentration at which inhibition is half-maximal. Lower therefore signals greater potency.

Receptor tyrosine-protein kinase erbB-2, sequence (P04626 whole entry): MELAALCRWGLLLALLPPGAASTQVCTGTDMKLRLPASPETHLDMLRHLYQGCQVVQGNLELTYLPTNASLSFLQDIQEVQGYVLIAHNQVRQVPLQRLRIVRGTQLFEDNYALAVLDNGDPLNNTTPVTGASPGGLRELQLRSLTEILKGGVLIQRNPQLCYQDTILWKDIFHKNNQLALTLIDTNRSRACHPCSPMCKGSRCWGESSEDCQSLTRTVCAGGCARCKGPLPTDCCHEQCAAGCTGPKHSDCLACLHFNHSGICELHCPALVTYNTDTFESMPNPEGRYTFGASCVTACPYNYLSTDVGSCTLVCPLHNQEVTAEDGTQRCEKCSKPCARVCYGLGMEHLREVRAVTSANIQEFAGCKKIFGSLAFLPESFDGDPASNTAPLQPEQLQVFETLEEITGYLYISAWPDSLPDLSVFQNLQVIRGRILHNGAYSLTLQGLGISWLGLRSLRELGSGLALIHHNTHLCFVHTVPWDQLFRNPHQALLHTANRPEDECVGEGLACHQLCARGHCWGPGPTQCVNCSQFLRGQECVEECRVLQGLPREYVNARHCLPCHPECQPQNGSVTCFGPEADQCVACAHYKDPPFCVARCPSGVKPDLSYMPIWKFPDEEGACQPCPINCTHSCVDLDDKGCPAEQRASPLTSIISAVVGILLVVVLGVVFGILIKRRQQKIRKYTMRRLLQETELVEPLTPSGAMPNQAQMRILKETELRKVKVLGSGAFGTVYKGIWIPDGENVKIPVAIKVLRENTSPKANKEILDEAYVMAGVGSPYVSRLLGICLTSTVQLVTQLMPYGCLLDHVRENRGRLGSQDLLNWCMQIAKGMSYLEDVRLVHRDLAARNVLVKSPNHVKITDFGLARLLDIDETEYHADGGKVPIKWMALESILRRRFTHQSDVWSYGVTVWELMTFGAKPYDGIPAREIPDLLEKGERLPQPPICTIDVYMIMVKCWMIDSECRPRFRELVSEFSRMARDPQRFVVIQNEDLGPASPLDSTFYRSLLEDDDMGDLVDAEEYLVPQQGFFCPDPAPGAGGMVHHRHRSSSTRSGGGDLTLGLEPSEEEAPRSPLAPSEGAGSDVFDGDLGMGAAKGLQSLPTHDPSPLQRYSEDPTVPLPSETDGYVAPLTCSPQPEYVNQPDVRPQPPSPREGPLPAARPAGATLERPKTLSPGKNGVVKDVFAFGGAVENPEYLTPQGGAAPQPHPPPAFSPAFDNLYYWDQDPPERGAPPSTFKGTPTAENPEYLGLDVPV
Ribosomal protein S6 kinase alpha-1, sequence (Q15418 whole entry): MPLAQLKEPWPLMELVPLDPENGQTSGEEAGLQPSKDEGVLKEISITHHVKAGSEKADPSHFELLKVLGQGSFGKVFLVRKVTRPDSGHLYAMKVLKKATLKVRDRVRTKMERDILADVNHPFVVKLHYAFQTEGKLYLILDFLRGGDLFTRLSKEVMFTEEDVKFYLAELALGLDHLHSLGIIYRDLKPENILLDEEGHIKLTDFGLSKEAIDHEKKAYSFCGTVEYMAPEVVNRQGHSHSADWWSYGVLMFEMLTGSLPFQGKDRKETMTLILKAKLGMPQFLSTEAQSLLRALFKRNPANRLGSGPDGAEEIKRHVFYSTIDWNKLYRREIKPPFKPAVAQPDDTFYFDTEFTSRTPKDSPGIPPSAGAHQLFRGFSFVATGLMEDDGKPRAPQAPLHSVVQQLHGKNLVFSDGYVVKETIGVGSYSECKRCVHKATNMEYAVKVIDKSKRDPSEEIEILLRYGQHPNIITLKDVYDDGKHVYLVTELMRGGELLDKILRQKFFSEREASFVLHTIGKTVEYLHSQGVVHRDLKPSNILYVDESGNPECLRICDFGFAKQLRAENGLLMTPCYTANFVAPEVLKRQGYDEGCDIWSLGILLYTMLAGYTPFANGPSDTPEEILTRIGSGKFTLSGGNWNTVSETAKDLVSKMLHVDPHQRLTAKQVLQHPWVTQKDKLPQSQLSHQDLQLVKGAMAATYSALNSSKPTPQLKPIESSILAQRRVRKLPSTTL
Calcium/calmodulin-dependent protein kinase type 1 (Homo sapiens), sequence (Q14012 whole entry, looked up): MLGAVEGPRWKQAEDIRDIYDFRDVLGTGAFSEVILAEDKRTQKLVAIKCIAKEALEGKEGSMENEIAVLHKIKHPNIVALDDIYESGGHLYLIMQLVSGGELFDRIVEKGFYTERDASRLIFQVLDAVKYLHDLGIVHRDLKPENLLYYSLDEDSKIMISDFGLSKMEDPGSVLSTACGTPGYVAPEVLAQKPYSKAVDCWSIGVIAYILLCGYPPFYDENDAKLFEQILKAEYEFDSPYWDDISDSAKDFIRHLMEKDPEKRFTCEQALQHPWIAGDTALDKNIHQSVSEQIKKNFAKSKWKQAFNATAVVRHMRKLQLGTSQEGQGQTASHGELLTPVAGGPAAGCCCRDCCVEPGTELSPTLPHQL

Regarding `Cn1cc(-n2cnc3c(NCc4nc5cc(Cl)c(Cl)cc5[nH]4)nc(N4CCOCC4)nc32)cn1`, the % of control in assay [1] was -4.87%. Besides, in assay [2], the % of inhibition stood at 18.6%.
Regarding `N#Cc1cccc(-c2c[nH]c3ncnc(N4CCOCC4)c23)c1`, in assay [3], the % of control worked out at 79%.
Consider `CC(=O)c1cc(-c2ccccc2OCC2CC2)c2ncccn12`, for which, in [4], the % of control is 100%.
As for `CCN(CC)CCCCNc1ncc2cc(-c3cc(OC)cc(OC)c3)c(NC(=O)NC(C)(C)C)nc2n1`, the % of control in assay [5] came out at 100%.
As for `Cc1cnc(Nc2ccc(F)cc2Cl)nc1-c1c[nH]c(C(=O)N[C@H](CO)c2cccc(Cl)c2)c1`, the % of inhibition in assay [6] was found to be 0%.
In the case of `CC[C@@H]1[C@H](F)C(=O)N[C@@H]1COc1nccc2cc(C(N)=O)c(OC)cc12` [ZIMLOVISERTIB], the % of inhibition in [7] is 1.7%; in assay [8] it was 12.4%.
Compound `CCC(=O)N1CC[C@H](Nc2ncnc3c2CN(c2cnc(OC)c(C(F)(F)F)c2)CC3)C1` [LENIOLISIB] yielded an IC50 in assay [9] of over 10 µM.
On to `Nc1cnc(N2CCc3cc(S(=O)(=O)Nc4c(F)cc(Cl)cc4F)cc(N4CCCC4=O)c32)nc1` [TP-020n], for which the % of control in assay [10] was 100%.
